# Source: patent US20060069132A1, “Azolecarboxamide herbicides” (priority 2004, published 2006)
# Experiments:
# barnyardgrass [1] = assay: Test A pre-/postemergence herbicide test; type: in vivo, Echinochloa crus-galli
# Outline: (§1)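 Pre: seeded sandy loam, directed soil spray, compound in non-phytotoxic solvent + surfactant. Post: 1–2-leaf plants (2–10 cm), sprayed to runoff. Greenhouse ~10 d; visual injury vs untreated, 0–100 scale.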
# large crabgrass [2] = assay: Test A pre-/postemergence herbicide test; type: in vivo, Digitaria sanguinalis
# Outline: as §1
# giant foxtail [3] = assay: Test A pre-/postemergence herbicide test; type: in vivo, Setaria faberi
# Outline: as §1
# morningglory [4] = assay: Test A pre-/postemergence herbicide test; type: in vivo, Ipomoea spp.
# Outline: as §1
# redroot pigweed = assay: Test A pre-/postemergence herbicide test; type: in vivo, Amaranthus retroflexus
# Outline: as §1
# velvetleaf [5] = assay: Test A pre-/postemergence herbicide test; type: in vivo, Abutilon theophrasti
# Outline: as §1
# barnyardgrass [6] = assay: Test B pre-/postemergence herbicide test; type: in vivo, Echinochloa crus-galli; details: for Barnyardgrass plant response rating: postemergence, visual rating, scale 0 (no effect) to 100 (complete control)
# Outline: (§2)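 Evaluation is visual, comparing treated with control plants on a scale where 0 means no effect and 100 means full control. Treatments were preemergence, or postemergence on seedlings 2–18 cm tall, and held 13–15 days in the greenhouse.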
# Surinam grass = assay: Test B pre-/postemergence herbicide test; type: in vivo, Urochloa decumbens; details: for Surinam Grass plant response rating: postemergence, visual rating, scale 0 (no effect) to 100 (complete control)
# Outline: (§3)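 Seeds were planted and treated preemergence with compounds formulated in a non-phytotoxic solvent mixture containing surfactant, while plants at the 1- to 4-leaf stage (2 to 18 cm) received postemergence sprays. Flooded paddy plants were grown to the 2-leaf stage. After 13 to 15 days in a greenhouse, injury was visually rated 0–100 against untreated controls.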
# cocklebur = assay: Test B pre-/postemergence herbicide test; type: in vivo, Xanthium strumarium; details: for Cocklebur plant response rating: postemergence, visual rating, scale 0 (no effect) to 100 (complete control)
# Outline: as §2
# corn = assay: Test B pre-/postemergence herbicide test; type: in vivo, Zea mays; details: for Corn plant response rating: postemergence, visual rating, scale 0 (no effect) to 100 (complete control)
# Outline: as §3
# large crabgrass [7] = assay: Test B pre-/postemergence herbicide test; type: in vivo, Digitaria sanguinalis; details: for Crabgrass, Large plant response rating: postemergence, visual rating, scale 0 (no effect) to 100 (complete control)
# Outline: as §3
# giant foxtail [8] = assay: Test B pre-/postemergence herbicide test; type: in vivo, Setaria faberi; details: for Foxtail, Giant plant response rating: postemergence, visual rating, scale 0 (no effect) to 100 (complete control)
# Outline: as §3
# lambsquarters = assay: Test B pre-/postemergence herbicide test; type: in vivo, Chenopodium album; details: for Lambsquarters plant response rating: postemergence, visual rating, scale 0 (no effect) to 100 (complete control)
# Outline: as §3
# morningglory [9] = assay: Test B pre-/postemergence herbicide test; type: in vivo, Ipomoea coccinea; details: for Morningglory plant response rating: postemergence, visual rating, scale 0 (no effect) to 100 (complete control)
# Outline: as §2
# pigweed = assay: Test B pre-/postemergence herbicide test; type: in vivo, Amaranthus retroflexus; details: for Pigweed plant response rating: postemergence, visual rating, scale 0 (no effect) to 100 (complete control)
# Outline: as §3
# rice [10] = assay: Test B pre-/postemergence herbicide test; type: in vivo, Oryza sativa; details: preemergence
# Outline: as §3
# velvetleaf [11] = assay: Test B pre-/postemergence herbicide test; type: in vivo, Abutilon theophrasti; details: for Velvetleaf plant response rating: postemergence, visual rating, scale 0 (no effect) to 100 (complete control)
# Outline: as §3
# blackgrass = assay: Test B postemergence herbicide test; type: in vivo, Alopecurus myosuroides; details: postemergence, visual rating, scale 0 (no effect) to 100 (complete control)
# Outline: (§4)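 Each value is a visual 0–100 response rating taken against controls 13 to 15 days after treatment in the greenhouse. Plants received formulated chemical postemergence at the 1- to 4-leaf stage or, in flooded paddy, at the 2-leaf stage.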
# wheat = assay: Test B postemergence herbicide test; type: in vivo, Triticum aestivum; parameters: key to Wheat plant response rating: 0 = no effect, 100 = complete control; details: postemergence, visual rating, scale 0 (no effect) to 100 (complete control)
# Outline: (§5)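 Greenhouse test; postemergence application to plants at 1–4 leaves (2–18 cm); paddy species at 2 leaves; evaluated visually vs controls at 13–15 days; scale 0–100 (100 = complete control).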
# wild oat = assay: Test B postemergence herbicide test; type: in vivo, Avena fatua; details: postemergence, visual rating, scale 0 (no effect) to 100 (complete control)
# Outline: as §5
# rice [12] = assay: Test B flooded paddy test; type: in vivo, Oryza sativa; details: 1000 g ai/ha, visual rating, scale 0 to 100 (0 no effect, 100 complete control), 13 to 15 days
# Outline: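 Visual ratings, 0 (no effect) to 100 (complete control), made versus controls after 13–15 d greenhouse. Paddy plants treated at 2-leaf stage; postemergence plants at 1- to 4-leaf stage, 2–18 cm tall.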
# [13] = test system: small flower umbrella sedge; assay: Test B flooded paddy test; type: in vivo, Cyperus difformis; details: 1000 g ai/ha, visual rating, scale 0 to 100 (0 no effect, 100 complete control), 13 to 15 days
# Outline: as §4
# ducksalad = assay: Test B flooded paddy test; type: in vivo, Heteranthera limosa; details: 1000 g ai/ha, visual rating, scale 0 to 100 (0 no effect, 100 complete control), 13 to 15 days
# Outline: as §4
# barnyardgrass [14] = assay: Test B flooded paddy test; type: in vivo, Echinochloa crus-galli; details: 1000 g ai/ha, visual rating, scale 0 to 100 (0 no effect, 100 complete control), 13 to 15 days
# Outline: as §4
# [15] = Postemergence, 500 g ai/ha, 0 to 100 scale, 0 no effect, 100 complete control
# [16] = Postemergence, 2000 g ai/ha, 0 to 100 scale, 0 no effect, 100 complete control
# [17] = Preemergence, 2000 g ai/ha, visual rating, 0 to 100 scale (0 no effect, 100 complete control)
# [18] = preemergence, 500 g ai/ha, visual injury, 0 to 100 scale (0 no effect, 100 complete control)
# [19] = 125 g ai/ha, 0 = no effect, 100 = complete control, preemergence
# [20] = 500 g ai/ha, visual rating 0-100, 0 no effect, 100 complete control, preemergence
smiles,measurement,setting,value
CCc1nc(C(C)(C)C)sc1C(=O)Nc1cccc(C(=O)NCC(F)(F)F)c1 [Compound 206],Barnyardgrass plant response rating,barnyardgrass [1]; [15],5
same,"Plant response rating, Barnyardgrass",barnyardgrass [1]; [16],10
same,Barnyardgrass plant response rating,barnyardgrass [1]; [17],60
same,Barnyardgrass plant response rating,barnyardgrass [1]; [18],10
same,"Crabgrass, Large plant response rating",large crabgrass [2]; [15],0
same,"Plant response rating, Crabgrass, Large",large crabgrass [2]; [16],5
same,"Crabgrass, Large plant response rating",large crabgrass [2]; [17],20
same,"Crabgrass, Large plant response rating",large crabgrass [2]; [18],20
same,"Foxtail, Giant plant response rating",giant foxtail [3]; [15],0
same,"Plant response rating, Foxtail, Giant",giant foxtail [3]; [16],0
same,"Foxtail, Giant plant response rating",giant foxtail [3]; [17],20
same,"Foxtail, Giant plant response rating",giant foxtail [3]; [18],0
same,Morningglory plant response rating,morningglory [4]; [15],0
same,"Plant response rating, Morningglory",morningglory [4]; [16],0
same,Morningglory plant response rating,morningglory [4]; [17],25
same,Morningglory plant response rating,morningglory [4]; [18],5
same,Pigweed plant response rating,redroot pigweed; [15],15
same,"Plant response rating, Pigweed",redroot pigweed; [16],20
same,Pigweed plant response rating,redroot pigweed; [17],60
same,Pigweed plant response rating,redroot pigweed; [18],25
same,Velvetleaf plant response rating,velvetleaf [5]; [15],5
same,"Plant response rating, Velvetleaf",velvetleaf [5]; [16],20
same,Velvetleaf plant response rating,velvetleaf [5]; [17],10
same,Velvetleaf plant response rating,velvetleaf [5]; [18],15
same,Barnyardgrass plant response rating (0 to 100 scale),barnyardgrass [6]; [19],10
same,"Plant response rating, Barnyardgrass",barnyardgrass [6]; [20],70
same,Barnyardgrass plant response rating,barnyardgrass [6]; 125 g ai/ha,0
same,Barnyardgrass plant response rating,barnyardgrass [6]; 500 g ai/ha,10
same,Surinam Grass plant response rating (0 to 100 scale),Surinam grass; [19],0
same,"Plant response rating, Surinam Grass",Surinam grass; [20],20
same,Surinam Grass plant response rating,Surinam grass; 125 g ai/ha,10
same,Surinam Grass plant response rating,Surinam grass; 500 g ai/ha,20
same,Cocklebur plant response rating (0 to 100 scale),cocklebur; [19],0
same,"Plant response rating, Cocklebur",cocklebur; [20],0
same,Cocklebur plant response rating,cocklebur; 125 g ai/ha,20
same,Cocklebur plant response rating,cocklebur; 500 g ai/ha,40
same,Corn plant response rating (0 to 100 scale),corn; [19],0
same,"Plant response rating, Corn",corn; [20],40
same,Corn plant response rating,corn; 125 g ai/ha,20
same,Corn plant response rating,corn; 500 g ai/ha,20
same,"Crabgrass, Large plant response rating (0 to 100 scale)",large crabgrass [7]; [19],10
same,"Plant response rating, Crabgrass, Large",large crabgrass [7]; [20],60
same,"Crabgrass, Large plant response rating",large crabgrass [7]; 125 g ai/ha,10
same,"Crabgrass, Large plant response rating",large crabgrass [7]; 500 g ai/ha,30
same,"Foxtail, Giant plant response rating (0 to 100 scale)",giant foxtail [8]; [19],0
same,"Plant response rating, Foxtail, Giant",giant foxtail [8]; [20],20
same,"Foxtail, Giant plant response rating",giant foxtail [8]; 125 g ai/ha,20
same,"Foxtail, Giant plant response rating",giant foxtail [8]; 500 g ai/ha,20
same,Lambsquarters plant response rating (0 to 100 scale),lambsquarters; [19],0
same,"Plant response rating, Lambsquarters",lambsquarters; [20],30
same,Lambsquarters plant response rating,lambsquarters; 125 g ai/ha,30
same,Lambsquarters plant response rating,lambsquarters; 500 g ai/ha,80
same,Morningglory plant response rating (0 to 100 scale),morningglory [9]; [19],0
same,"Plant response rating, Morningglory",morningglory [9]; [20],20
same,Morningglory plant response rating,morningglory [9]; 125 g ai/ha,20
same,Morningglory plant response rating,morningglory [9]; 500 g ai/ha,20
same,Pigweed plant response rating (0 to 100 scale),pigweed; [19],0
same,"Plant response rating, Pigweed",pigweed; [20],80
same,Pigweed plant response rating,pigweed; 125 g ai/ha,30
same,Pigweed plant response rating,pigweed; 500 g ai/ha,40
same,Rice plant response rating (0 to 100 scale),"rice [10]; 125 g ai/ha, 0 = no effect, 100 = complete control",0
same,"Plant response rating, Rice","rice [10]; 500 g ai/ha, visual rating 0-100, 0 no effect, 100 complete control",30
same,Velvetleaf plant response rating (0 to 100 scale),velvetleaf [11]; [19],0
same,"Plant response rating, Velvetleaf",velvetleaf [11]; [20],10
same,Velvetleaf plant response rating,velvetleaf [11]; 125 g ai/ha,20
same,Velvetleaf plant response rating,velvetleaf [11]; 500 g ai/ha,20
same,Blackgrass plant response rating,blackgrass; 125 g ai/ha,0
same,Blackgrass plant response rating,blackgrass; 500 g ai/ha,20
same,Wheat plant response rating,wheat; 125 g ai/ha,20
same,Wheat plant response rating,wheat; 500 g ai/ha,20
same,"Oat, Wild plant response rating",wild oat; 125 g ai/ha,20
same,"Oat, Wild plant response rating",wild oat; 500 g ai/ha,20
same,Rice plant response rating,rice [12],30
same,"Sedge, Umbrella plant response rating",[13],50
same,Ducksalad plant response rating,ducksalad,40
same,Barnyardgrass plant response rating,barnyardgrass [14],10
